# Test results taken from US20250115620A1, “BRIDGED TRICYCLIC CARBAMOYLPYRIDONE COMPOUNDS AND USES THEREOF” (Gilead Sciences, Inc., priority 2022, published 2025).
# pEC50: −log10 of the molar value. Like-named read-outs stand apart in the source and are kept apart here.
# Tests used:
# pLAI reporter virus = experiment: microbe, parasite or virus in culture; format: cell-based, HIV; settings: Human immunodeficiency virus 1, MT4, 72 h
# HIV-1 (IIIB) = experiment: microbe, parasite or virus in culture; format: cell-based; settings: Human immunodeficiency virus 1, IIIB, MT4, 120 h, HIV-1 (IIIB) in MT-4 cells, 5 days incubation, Cell Titer Glo; read-out: MT4 EC50
# in vitro = settings: human, uninfected MT-4 cells
Structure (SMILES),pEC50 (pLAI reporter virus; read-out: RLUC 50% HS EC50),pEC50 (pLAI reporter virus; read-out: RLUC CCM EC50),pEC50 (HIV-1 (IIIB)),CC50 at 5 days (in vitro) [nM]
"C[C@H]1CC[C@]2(CC(=O)N(Cc3nc4ccccc4n3C)O2)[C@H]2CN1C(=O)c1c(O)c(=O)c(C(=O)NCc3c(F)cc(F)cc3F)cn12 [Example 163, (3′S,5S,7′R)-12′-hydroxy-3′-methyl-2-((1-methyl-1H-benzo[d]imidazol-2-yl)methyl)-1′,3,11′-trioxo-N-(2,4,6-trifluorobenzyl)-1′,4′,5′,11′-tetrahydro-3′H,7′H-spiro[isoxazolidine-5,6′-[2,7]methanopyrido[1,2-a][1,4]diazonine]-10′-carboxamide]",8.70,9.05,8.82,≥ 50000
"C[C@H]1CC[C@]2(CC(=O)N(Cc3nc4ccccc4[nH]3)O2)[C@H]2CN1C(=O)c1c(O)c(=O)c(C(=O)NCc3c(F)cc(F)cc3F)cn12 [Example 162, (3′S,5S,7′R)-2-((1H-benzo[d]imidazol-2-yl)methyl)-12′-hydroxy-3′-methyl-1′,3,11′-trioxo-N-(2,4,6-trifluorobenzyl)-1′,4′,5′,11′-tetrahydro-3′H,7′H-spiro[isoxazolidine-5,6′-[2,7]methanopyrido[1,2-a][1,4]diazonine]-10′-carboxamide]",8.24,8.85,8.44,≥ 50000
"COC1=NO[C@@]2(CC[C@H](C)N3C[C@H]2n2cc(C(=O)NCc4c(F)cc(F)cc4F)c(=O)c(O)c2C3=O)[C@@H]1F [Example 86, (3′S,4S,5R,7′R)-4-fluoro-12′-hydroxy-3-methoxy-3′-methyl-1′,11′-dioxo-N-(2,4,6-trifluorobenzyl)-1′,4′,5′,11′-tetrahydro-3′H,4H,7′H-spiro[isoxazole-5,6′-[2,7]methanopyrido[1,2-a][1,4]diazonine]-10′-carboxamide]",7.16,9.52,8.92,11900
"C[C@H]1CC[C@]2(CC(C#CC(C)(C)O)=NO2)[C@H]2CN1C(=O)c1c(O)c(=O)c(C(=O)NCc3c(F)cc(F)cc3F)cn12 [Example 81, (3′S,5S,7′R)-12′-hydroxy-3-(3-hydroxy-3-methylbut-1-yn-1-yl)-3′-methyl-1′,11′-dioxo-N-(2,4,6-trifluorobenzyl)-1′,4′,5′,11′-tetrahydro-3′H,4H,7′H-spiro[isoxazole-5,6′-[2,7]methanopyrido[1,2-a][1,4]diazonine]-10′-carboxamide]",9.22,9.30,8.68,19600
"C[C@H]1CC[C@]2(CC(=O)N(Cc3nc4ccccc4s3)O2)[C@H]2CN1C(=O)c1c(O)c(=O)c(C(=O)NCc3c(F)cc(F)cc3F)cn12 [Example 161, (3′S,5S,7′R)-2-(benzo[d]thiazol-2-ylmethyl)-12′-hydroxy-3′-methyl-1′,3,11′-trioxo-N-(2,4,6-trifluorobenzyl)-1′,4′,5′,11′-tetrahydro-3′H,7′H-spiro[isoxazolidine-5,6′-[2,7]methanopyrido[1,2-a][1,4]diazonine]-10′-carboxamide]",9.05,9.40,8.85,≥ 50000
"C[C@H]1CC[C@]2(COCO2)[C@H]2CN1C(=O)c1c(O)c(=O)c(C(=O)NCc3c(F)cc(F)cc3F)cn12 [Example 130, (3′S,4R,7′R)-12′-hydroxy-3′-methyl-1′,11′-dioxo-N-(2,4,6-trifluorobenzyl)-1′,4′,5′,11′-tetrahydro-3′H,7′H-spiro[[1,3]dioxolane-4,6′-[2,7]methanopyrido[1,2-a][1,4]diazonine]-10′-carboxamide]",6.44,9.70,9.05,9840
"CO[C@H]1CS[C@@]2(CC[C@H](C)N3C[C@H]2n2cc(C(=O)NCc4c(F)cc(F)cc4F)c(=O)c(O)c2C3=O)O1 (single isomer, unassigned) [170 (peak 3)]",7.36,9.52,8.92,8240
"C[C@H]1CC[C@]2(CC(CCCCCl)=NO2)[C@H]2CN1C(=O)c1c(O)c(=O)c(C(=O)NCc3c(F)cc(F)cc3F)cn12 [Example 10, (3′S,5S,7′R)-3-(4-chlorobutyl)-12′-hydroxy-3′-methyl-1′,11′-dioxo-N-(2,4,6-trifluorobenzyl)-1′,4′,5′,11′-tetrahydro-3′H,4H,7′H-spiro[isoxazole-5,6′-[2,7]methanopyrido[1,2-a][1,4]diazonine]-10′-carboxamide]",8.26,9.00,8.77,5860
"CC1=NO[C@@]2(CC[C@H](C)N3C[C@H]2n2cc(C(=O)NCc4ccc(F)cc4F)c(=O)c(O)c2C3=O)[C@H]1C [Example 26, (3′S,4S,5S,7′R)—N-(2,4-difluorobenzyl)-12′-hydroxy-3,3′,4-trimethyl-1′,11′-dioxo-1′,4′,5′,11′-tetrahydro-3′H,4H,7′H-spiro[isoxazole-5,6′-[2,7]methanopyrido[1,2-a][1,4]diazonine]-10′-carboxamide]",8.02,9.52,9.30,13000
"C[C@H]1CC[C@@]2(CCO2)[C@H]2CN1C(=O)c1c(O)c(=O)c(C(=O)NCc3c(F)cc(F)cc3F)cn12 [Example 55, (2R,3′S,7′R)-12′-hydroxy-3′-methyl-1′,11′-dioxo-N-(2,4,6-trifluorobenzyl)-1′,4′,5′,11′-tetrahydro-3′H,7′H-spiro[oxetane-2,6′-[2,7]methanopyrido[1,2-a][1,4]diazonine]-10′-carboxamide]",7.29,8.96,8.77,≥ 50000
"CC1=NO[C@@]2(CC[C@H](C)N3C[C@H]2n2cc(C(=O)NCc4ccc(F)c(Cl)c4F)c(=O)c(O)c2C3=O)C1 [Example 6, (3′S,5S,7′R)—N-(3-chloro-2,4-difluorobenzyl)-12′-hydroxy-3,3′-dimethyl-1′,11′-dioxo-1′,4′,5′,11′-tetrahydro-3′H,4H,7′H-spiro[isoxazole-5,6′-[2,7]methanopyrido[1,2-a][1,4]diazonine]-10′-carboxamide]",6.26,9.70,9.30,9280
"C[C@H]1CC[C@]2(CC(C#N)=NO2)[C@H]2CN1C(=O)c1c(O)c(=O)c(C(=O)NCc3ccc(F)cc3F)cn12 [Example 42, (3′S,5S,7′R)-3-cyano-N-(2,4-difluorobenzyl)-12′-hydroxy-3′-methyl-1′,11′-dioxo-1′,4′,5′,11′-tetrahydro-3′H,4H,7′H-spiro[isoxazole-5,6′-[2,7]methanopyrido[1,2-a][1,4]diazonine]-10′-carboxamide]",6.26,6.80,≤ 7.00,≥ 50000
"COC1=NO[C@@]2(CC[C@H](C)N3C[C@H]2n2cc(C(=O)NCc4c(F)cc(F)cc4F)c(=O)c(O)c2C3=O)[C@H]1O [Example 84, (3′S,4R,5R,7′R)-4,12′-dihydroxy-3-methoxy-3′-methyl-1′,11′-dioxo-N-(2,4,6-trifluorobenzyl)-1′,4′,5′,11′-tetrahydro-3′H,4H,7′H-spiro[isoxazole-5,6′-[2,7]methanopyrido[1,2-a][1,4]diazonine]-10′-carboxamide]",7.65,9.52,8.80,25800
"C[C@H]1CC[C@]2(CC(=O)NO2)[C@H]2CN1C(=O)c1c(O)c(=O)c(C(=O)NCc3c(F)cc(F)cc3F)cn12 [Example 101, (3′S,5S,7′R)-12′-hydroxy-3′-methyl-1′,3,11′-trioxo-N-(2,4,6-trifluorobenzyl)-1′,4′,5′,11′-tetrahydro-3′H,7′H-spiro[isoxazolidine-5,6′-[2,7]methanopyrido[1,2-a][1,4]diazonine]-10′-carboxamide]",6.39,7.47,7.01,≥ 50000
"C[C@@H]1OC[C@]2(CC[C@H](C)N3C[C@H]2n2cc(C(=O)NCc4c(F)cc(F)cc4F)c(=O)c(O)c2C3=O)O1 [Example 133, (2R,3′S,4R,7′R)-12′-hydroxy-2,3′-dimethyl-1′,11′-dioxo-N-(2,4,6-trifluorobenzyl)-1′,4′,5′,11′-tetrahydro-3′H,7′H-spiro[[1,3]dioxolane-4,6′-[2,7]methanopyrido[1,2-a][1,4]diazonine]-10′-carboxamide]",6.99,9.30,8.77,20200
"C[C@H]1CC[C@]2(CC(n3cnnc3)=NO2)[C@H]2CN1C(=O)c1c(O)c(=O)c(C(=O)NCc3c(F)cc(F)cc3F)cn12 [Example 76, (3′S,5S,7′R)-12′-hydroxy-3′-methyl-1′,11′-dioxo-3-(4H-1,2,4-triazol-4-yl)-N-(2,4,6-trifluorobenzyl)-1′,4′,5′,11′-tetrahydro-3′H,4H,7′H-spiro[isoxazole-5,6′-[2,7]methanopyrido[1,2-a][1,4]diazonine]-10′-carboxamide]",8.48,9.40,8.66,10100
"CC1=NO[C@@]2(CC[C@H](C)N3C[C@H]2n2cc(C(=O)NCc4c(F)cc(F)cc4F)c(=O)c(O)c2C3=O)C1 [Example 3, (3′S,5S,7′R)-12′-hydroxy-3,3′-dimethyl-1′,11′-dioxo-N-(2,4,6-trifluorobenzyl)-1′,4′,5′,11′-tetrahydro-3′H,4H,7′H-spiro[isoxazole-5,6′-[2,7]methanopyrido[1,2-a][1,4]diazonine]-10′-carboxamide]",7.15,9.70,9.05,20100
"C[C@H]1CC[C@]2(CC(C(F)F)=NO2)[C@H]2CN1C(=O)c1c(O)c(=O)c(C(=O)NCc3c(F)cc(F)cc3F)cn12 [Example 20, (3′S,5S,7′R)-3-(difluoromethyl)-12′-hydroxy-3′-methyl-1′,11′-dioxo-N-(2,4,6-trifluorobenzyl)-1′,4′,5′,11′-tetrahydro-3′H,4H,7′H-spiro[isoxazole-5,6′-[2,7]methanopyrido[1,2-a][1,4]diazonine]-10′-carboxamide]",6.77,9.52,8.92,12400
